We go through 2 compounds from US20070155824A1, “USE OF BENZO-FUSED HETEROCYCLE SULFAMIDE DERIVATIVES FOR DISEASE MODIFICATION / EPILEPTOGENESIS” (priority 2005, published 2007).

Series [1] has as its system amygdala kindled rat model of partial epilepsy. Kind of series: In Vivo, Amygdala Kindling Assay. Also noted: species or system Sprague-Dawley rats. To be noted: rats. From the text: The development of amygdala kindling is an established model of epileptogenesis. (Amano K, Hamada K, Yagi K, Seino M. Antiepileptic effects of topiramate on amygdaloid kindling in rats. Epilepsy Res. 1998 Jul;31(2):123-8; Barton M E, White H S. The effect of CGX-1007 and CI-1041, novel NMDA receptor antagonists, on kindling acquisition and expression. Epilepsy Res. 2004 Mar;59(1):1-12; Loscher W, Honack D, Rundfeldt C. Antiepileptogenic effects of the novel anticonvulsant levetiracetam (ucb L059)in the kindling model of temporal lobe epilepsy. J Pharmacol Exp Ther. 1998 Feb;284(2):474-9; McNamara J O. Analyses of the molecular basis of kindling development. Psychiatry Clin Neurosci. 1995 June; 49(3):S175-8. Review.; Morimoto K, Katayama K, Inoue K, Sato K. Effects of competitive and noncompetitive NMDA receptor antagonists on kindling and LTP. Pharmacol Biochem Behav. 1991 Dec;40(4):893-9; Racine, R. J. 1972. Modification of seizure activity by electrical stimulation. II. Motor seizure. Electroencephalogr. Clin. Neurophysiol. 32, 281-294). The kindled rat model of partial epilepsy is an accepted model of epileptogenesis (McNamara J O. Analyses of the molecular basis of kindling development. Psychiatry Clin Neurosci. 1995 Jun;49(3):S1 75-8. Review.).
Briefly, the assay procedure was as follows. Adult male, Sprague-Dawley rats weighing between 250-300 g were obtained from Charles River, Wilmington, Mass. All the animals were housed on a 12:12 light dark cycle and permitted free access to both food (Prolab RMH 3000) and water except when removed from the home cage for experimental procedures. Animals were cared for in a matter consistent with the recommendations detailed in the National Research Council Publication, “Guide for the Care and Use of Laboratory Animals” in a temperature controlled, pesticide-free facility. Kindling stimulations were routinely performed between 9 AM-2 PM to avoid any circadian variations.
Compound #8 was triturated in a small volume of 0.5% methylcellulose, sonicated for 10 min, and brought to a final volume with 0.5% methylcellulose. Compound #8 was administered systemically (i.p.) in a volume of 0.04 ml/10 g body weight and all tests were conducted at the pre-determined time of peak effect of 0.5 hours after i.p. administration.
The ability of Compound #8 to block the expression of amygdala kindled seizures was determined as follows. Rats were anaesthetized with a ketamine (120 mg/kg, i.p.) and xylazine (12 mg/kg, i.p.) cocktail. […]
Amygdala kindling was then performed according to the following protocol. […] The behavioral seizure score and AD duration was recorded for rats in each treatment group. […]

In general, melting point refers to the temperature, or range, at which the solid turns liquid.

In the case of `NS(=O)(=O)NC[C@H]1COc2cc(Cl)ccc2O1` [Compound #8, (2S)-(−)-N-(6-Chloro-2,3-dihydro-benzo[1,4]dioxin-2-ylmethyl)-sulfamide], the “behavioral seizure score (Racine scale) at the conclusion of the drug- and stimulus-free period” value in series [1] (75 mg/kg i.p. 30 min before daily amygdala stimulation (200 μA, 2 s) for up to 13 days, re-challenge without drug after one-week drug- and stimulus-free period, vehicle=4.6±0.24) came out at 1.4±0.40. Further, the “acquisition of the full generalized kindled seizure” value in series [1] (75 mg/kg i.p. during kindling acquisition) is “prevented the acquisition of the full generalized kindled seizure”. The “after-discharge (AD) duration over the kindling acquisition phase vs vehicle” value in series [1] (75 mg/kg i.p., daily stimulation, progressive increase in both groups) is “No statistical difference between treatment groups”. The “delay of acquisition of kindling” value in series [1] (stimulated in the absence of drug after the drug-free week, seizure score rose parallel to vehicle) is given as “delayed the acquisition of kindling by several days”.

`NS(=O)(=O)NCC1CCc2ccccc2O1` (centres unmarked) [Compound #10, Chroman-2-ylmethylsulfamide] gave a melting point of 100 to 101 °C.
